# Assay results from ChEMBL document CHEMBL4354856, “Discovery of 4,6-O-Thenylidene-β-d-glucopyranoside-(2″-acetamido, 3″-acetyl-di-S-5-fluorobenzothizole/5-fluorobenzoxazole)-4'-demethylepipodophyllotoxin as Potential Less Toxic Antitumor Candidate Drugs by Reducing DNA Damage and Less Inhibition of PI3K” (J Med Chem, 2020).
# pIC50: −log10 of the molar value. Active and inactive are the calls of the source. The calls are words filed in the database; no cut-off is given here.
# Key:
# HMEC [1] = assay: Cytotoxicity against human HMEC cells assessed as inhibition of cell proliferation measured after 48 hrs by MTT assay; type: cell-based
# MCF7 = assay: Anticancer activity against human MCF7 cells assessed as inhibition of cell proliferation measured after 48 hrs by MTT assay; type: functional, cell-based; settings: MCF7, 48 h
# MRC5 [2] = assay: Cytotoxicity against human MRC5 cells assessed as inhibition of cell proliferation measured after 48 hrs by MTT assay; type: cell-based; settings: MRC5, 48 h
# L02 [3] = assay: Cytotoxicity against human HL7702 cells assessed as inhibition of cell proliferation measured after 48 hrs by MTT assay; type: cell-based; settings: L02, 48 h
# HepG2 [4] = assay: Anticancer activity against human HepG2 cells assessed as inhibition of cell proliferation measured after 48 hrs by MTT assay; type: functional, cell-based; settings: HepG2, 48 h
# A549 = assay: Anticancer activity against human A549 cells assessed as inhibition of cell proliferation measured after 48 hrs by MTT assay; type: functional, cell-based; settings: A549, 48 h
# HeLa = assay: Anticancer activity against human HeLa cells assessed as inhibition of cell proliferation measured after 48 hrs by MTT assay; type: functional, cell-based
# [5] = Cytotoxicity against human H8 cells assessed as inhibition of cell proliferation measured after 48 hrs by MTT assay; type: cell-based
# [6] = target: DNA topoisomerase 2-alpha (Homo sapiens) (UniProt P11388); assay: Inhibition of human topoisomerase-2alpha mediated decatenation using kinetoplast DNA as substrate after 30 mins in presence of ATP by ethidium bromide staining-based UV imaging analysis
# [7] = target: DNA topoisomerase 2-alpha (Homo sapiens) (UniProt P11388); assay: Inhibition of human topoisomerase-2alpha mediated decatenation at 50 uM using kinetoplast DNA as substrate after 30 mins in presence of ATP by ethidium bromide staining-based UV imaging analysis relative to control
# HepG2 [8] = assay: Cell cycle arrest in human HepG2 cells assessed as accumulation at G2/M phase at 5 uM after 24 hrs by propidium staining based flow cytometry analysis; type: functional
# HepG2 [9] = assay: Cell cycle arrest in human HepG2 cells assessed as accumulation at G2/M phase at 15 uM after 36 hrs by propidium staining based flow cytometry analysis relative to control; type: functional
# L02 [10] = assay: Cell cycle arrest in human HL7702 cells assessed as accumulation at G2/M phase at 5 uM after 30 hrs by propidium staining based flow cytometry analysis relative to control; settings: l02, 30 h
# HepG2 [11] = assay: Induction of apoptosis in human HepG2 cells assessed as apoptotic cells at 5 to 15 uM measured after 36 hrs by Annexin-V/propidium iodide staining based flow cytometry analysis relative to control; type: functional
# HepG2 [12] = assay: Induction of apoptosis in human HepG2 cells assessed as apoptotic cells at 10 uM measured after 42 hrs by Annexin-V/propidium iodide staining based flow cytometry analysis relative to control; type: functional
# L02 [13] = assay: Induction of apoptosis in human HL7702 cells assessed as apoptotic cells at 50 uM measured after 42 hrs by Annexin-V/propidium iodide staining based flow cytometry analysis relative to control; type: cell-based; settings: l02, 42 h
# [14] = Acute toxicity in C57BL6 mouse assessed as effect on body weight at 100 mg/kg, ip administered for 20 days; type: organism-based; settings: in vivo, 480 h
# [15] = Acute toxicity in ip dosed C57BL6 mouse assessed as mouse survival administered as single dose for 3 days and monitored for 20 days by Bliss method; type: organism-based; settings: in vivo
# HepG2 [16] = assay: Antitumor activity against human HepG2 xenografted in ip dosed BALB/c nude mouse administered for 20 days and measured after 20 days by electronic caliper method; type: functional; settings: 480 h
# HepG2 [17] = assay: Antitumor activity against human HepG2 xenografted in BALB/c nude mouse assessed as tumor volume at 30 mg/kg, ip administered for 20 days and measured after 20 days by electronic caliper method (reference value: 960.20 +/- 32.10 mm3); type: functional
# HepG2 [18] = assay: Antitumor activity against human HepG2 xenografted in BALB/c nude mouse assessed as tumor growth inhibition at 30 mg/kg, ip administered for 20 days and measured after 20 days by electronic caliper method relative to control; type: functional; settings: 480 h, read-out: TGI
# [19] = Therapeutic index, ratio of LD50 for acute toxicity in ip dosed C57BL6 mouse assessed as mouse survival administered as single dose for 3 days and monitored for 20 days by Bliss method to ED50 for antitumor activity against human HepG2 xenografted in ip dosed BALB/c nude mouse administered for 20 days and measured after 20 days by electronic caliper method; type: organism-based; settings: in vivo, read-out: TI
# [20] = target: DNA topoisomerase 2-alpha (Homo sapiens) (UniProt P11388); assay: Inhibition of human topoisomerase-2alpha mediated decatenation at 25 uM using kinetoplast DNA as substrate after 30 mins in presence of ATP by ethidium bromide staining-based UV imaging analysis
# DNA topoisomerase II [21] = target: T1, DNA topoisomerase II (Homo sapiens, UniProt P11388+Q02880); assay: Poison activity at topoisomerase-2 in human HepG2 cell lysate assessed as topoisomerase-2 band depletion after 3 hrs by Western blot analysis; type: subcellular
# DNA topoisomerase II [22] = target: T1, DNA topoisomerase II; assay: Poison activity at topoisomerase-2 in human HL7702 cell lysate assessed as reduction in topoisomerase-2 band depletion at 50 uM after 3 hrs by Western blot analysis; type: ADME, subcellular
# HepG2 [23] = assay: Induction of DNA damage in human HepG2 cells assessed as increase in H2AX phosphorylation at 20 uM after 24 hrs by Alexa Fluor 488 staining based fluorescence assay; type: functional, cell-based
# L02 [24] = assay: Genotoxicity in human HL7702 cells assessed as induction of DNA damage by measuring tail DNA at 50 uM after 24 hrs by alkaline comet assay (reference value: 3 +/- 1.1 %); type: toxicity, cell-based; settings: l02, 24 h
# L02 [25] = assay: Induction of DNA damage in human HL7702 cells assessed as effect on gamma-H2AX phosphorylation at 20 uM after 24 hrs by Alexa Fluor 488 staining based fluorescence assay; type: cell-based; settings: l02, 24 h
# L02 [26] = assay: Genotoxicity in human HL7702 cells assessed as induction of DNA damage at 50 uM after 24 hrs in combination of teniposide by alkaline comet assay; type: toxicity, cell-based; settings: l02, 24 h
# L02 [27] = assay: Cytotoxicity against human HL7702 cells assessed as inhibition of cell proliferation measured after 48 hrs by MTT assay relative to teniposide; type: cell-based; settings: l02, 48 h
# MRC5 [28] = assay: Cytotoxicity against human MRC5 cells assessed as inhibition of cell proliferation measured after 48 hrs by MTT assay relative to teniposide; type: cell-based; settings: mrc5, 48 h
# HMEC [29] = assay: Cytotoxicity against human HMEC cells assessed as inhibition of cell proliferation measured after 48 hrs by MTT assay relative to teniposide; type: cell-based
# Homo sapiens = species on record: Homo sapiens; assay: Induction of PI3K/AKT phosphorylation in human HL7702 cells at 25 uM after 30 hrs by Western blot analysis; type: cell-based
# L02 [30] = assay: Induction of apoptosis in human HL7702 cells assessed as increase in BAX level at 25 uM after 30 hrs by Western blot analysis; type: cell-based; settings: l02, 30 h
# L02 [31] = assay: Induction of apoptosis in human HL7702 cells assessed as increase in PARP cleavage at 25 uM after 30 hrs by Western blot analysis; type: cell-based; settings: l02, 30 h
# Sequence of DNA topoisomerase 2-alpha (Homo sapiens) (P11388 whole entry): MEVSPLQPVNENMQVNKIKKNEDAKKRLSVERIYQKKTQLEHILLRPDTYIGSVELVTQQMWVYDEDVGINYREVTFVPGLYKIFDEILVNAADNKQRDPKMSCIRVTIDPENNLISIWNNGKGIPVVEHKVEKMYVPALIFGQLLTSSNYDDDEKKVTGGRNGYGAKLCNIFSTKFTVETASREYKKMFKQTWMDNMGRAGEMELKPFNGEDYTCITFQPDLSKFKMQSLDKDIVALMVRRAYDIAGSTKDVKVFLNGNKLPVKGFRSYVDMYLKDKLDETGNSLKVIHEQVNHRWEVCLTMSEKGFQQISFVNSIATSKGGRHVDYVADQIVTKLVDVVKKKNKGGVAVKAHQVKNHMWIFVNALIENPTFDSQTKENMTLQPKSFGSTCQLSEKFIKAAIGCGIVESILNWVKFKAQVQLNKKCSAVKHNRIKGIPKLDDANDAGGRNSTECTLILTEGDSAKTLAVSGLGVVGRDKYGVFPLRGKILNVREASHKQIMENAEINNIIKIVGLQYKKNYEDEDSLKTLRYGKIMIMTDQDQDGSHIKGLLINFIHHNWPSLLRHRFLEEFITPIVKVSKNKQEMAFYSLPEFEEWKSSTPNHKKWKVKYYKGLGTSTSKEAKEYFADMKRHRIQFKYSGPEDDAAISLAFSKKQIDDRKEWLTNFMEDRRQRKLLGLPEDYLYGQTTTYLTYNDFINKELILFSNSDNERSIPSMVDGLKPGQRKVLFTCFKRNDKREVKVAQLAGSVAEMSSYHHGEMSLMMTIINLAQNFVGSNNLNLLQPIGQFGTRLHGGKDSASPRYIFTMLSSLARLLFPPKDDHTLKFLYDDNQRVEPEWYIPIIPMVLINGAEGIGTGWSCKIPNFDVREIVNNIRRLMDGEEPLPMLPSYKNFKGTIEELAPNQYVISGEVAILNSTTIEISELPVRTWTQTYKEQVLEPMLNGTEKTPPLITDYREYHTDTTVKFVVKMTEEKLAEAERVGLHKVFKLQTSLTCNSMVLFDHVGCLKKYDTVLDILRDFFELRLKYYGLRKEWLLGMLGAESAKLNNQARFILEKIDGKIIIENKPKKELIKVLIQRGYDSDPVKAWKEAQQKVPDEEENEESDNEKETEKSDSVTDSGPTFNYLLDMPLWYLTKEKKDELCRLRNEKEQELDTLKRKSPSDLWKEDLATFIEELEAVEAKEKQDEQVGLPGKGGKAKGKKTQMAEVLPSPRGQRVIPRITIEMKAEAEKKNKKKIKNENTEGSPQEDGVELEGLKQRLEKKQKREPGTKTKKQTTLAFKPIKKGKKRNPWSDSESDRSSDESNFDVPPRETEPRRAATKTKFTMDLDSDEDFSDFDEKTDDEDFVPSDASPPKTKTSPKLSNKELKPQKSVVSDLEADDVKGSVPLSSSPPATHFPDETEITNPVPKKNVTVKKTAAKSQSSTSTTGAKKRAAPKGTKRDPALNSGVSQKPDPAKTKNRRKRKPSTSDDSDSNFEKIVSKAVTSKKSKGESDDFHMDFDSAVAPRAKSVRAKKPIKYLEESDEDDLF
compound,measurement,setting,value
COc1cc([C@@H]2c3cc4c(cc3[C@@H](O[C@@H]3O[C@@H]5CO[C@@H](c6cccs6)O[C@H]5[C@H](OC(=O)CSc5nc6cc(F)ccc6o5)[C@H]3O)[C@H]3COC(=O)[C@H]23)OCO4)cc(OC)c1O,pIC50,HMEC [1],4.85
same,pIC50,MCF7,5.34
same,pIC50,MRC5 [2],4.83
same,pIC50,L02 [3],4.79
same,pIC50,HepG2 [4],5.68
same,pIC50,A549,5.32
same,pIC50,HeLa,5.70
same,pIC50,[5],4.80
COc1cc([C@@H]2c3cc4c(cc3[C@@H](O[C@@H]3O[C@@H]5CO[C@@H](c6cccs6)O[C@H]5[C@H](O)[C@H]3OC(=O)CSc3nc5cc(F)ccc5o3)[C@H]3COC(=O)[C@H]23)OCO4)cc(OC)c1O,pIC50,HMEC [1],4.84
same,pIC50,MCF7,5.40
same,pIC50,MRC5 [2],4.80
same,pIC50,L02 [3],4.76
same,pIC50,HepG2 [4],5.77
same,pIC50,A549,5.57
same,pIC50,HeLa,6.00
same,pIC50,[5],4.67
COc1cc([C@@H]2c3cc4c(cc3[C@@H](O[C@@H]3O[C@@H]5CO[C@@H](c6cccs6)O[C@H]5[C@H](O)[C@H]3NC(=O)CSc3nc5cc(F)ccc5s3)[C@H]3COC(=O)[C@H]23)OCO4)cc(OC)c1O,pIC50,HMEC [1],3.80
same,pIC50,MCF7,3.85
same,pIC50,MRC5 [2],3.91
same,pIC50,L02 [3],3.81
same,pIC50,HepG2 [4],3.92
same,pIC50,A549,3.91
same,pIC50,HeLa,3.87
same,pIC50,[5],3.85
COc1cc([C@@H]2c3cc4c(cc3[C@@H](O[C@@H]3O[C@@H]5CO[C@@H](c6cccs6)O[C@H]5[C@H](OC(=O)CSc5nc6cc(F)ccc6o5)[C@H]3OC(=O)CSc3nc5cc(F)ccc5o3)[C@H]3COC(=O)[C@H]23)OCO4)cc(OC)c1O,pIC50,HMEC [1],4.63
same,pIC50,MCF7,4.52
same,pIC50,MRC5 [2],4.60
same,pIC50,L02 [3],4.69
same,pIC50,HepG2 [4],4.81
same,pIC50,A549,4.94
same,pIC50,HeLa,4.30
same,pIC50,[5],4.69
COc1cc([C@@H]2c3cc4c(cc3[C@@H](O[C@@H]3O[C@@H]5CO[C@@H](c6cccs6)O[C@H]5[C@H](OC(=O)CSc5nc6cc(F)ccc6s5)[C@H]3OC(=O)CSc3nc5cc(F)ccc5s3)[C@H]3COC(=O)[C@H]23)OCO4)cc(OC)c1O,pIC50,HMEC [1],4.61
same,pIC50,MCF7,3.82
same,pIC50,MRC5 [2],4.59
same,pIC50,L02 [3],4.66
same,pIC50,HepG2 [4],4.42
same,pIC50,A549,3.93
same,pIC50,HeLa,3.76
same,pIC50,[5],4.69
COc1cc([C@@H]2c3cc4c(cc3[C@@H](O[C@@H]3O[C@@H]5CO[C@@H](c6cccs6)O[C@H]5[C@H](O)[C@H]3OC(=O)CSc3nc5cc(F)ccc5s3)[C@H]3COC(=O)[C@H]23)OCO4)cc(OC)c1O,pIC50,HMEC [1],4.87
same,pIC50,MCF7,5.41
same,pIC50,MRC5 [2],4.91
same,pIC50,L02 [3],4.73
same,pIC50,HepG2 [4],5.70
same,pIC50,A549,5.96
same,pIC50,HeLa,5.82
same,pIC50,[5],4.65
COc1cc([C@@H]2c3cc4c(cc3[C@@H](O[C@@H]3O[C@@H]5CO[C@@H](c6cccs6)O[C@H]5[C@H](OC(=O)CSc5nc6cc(F)ccc6s5)[C@H]3O)[C@H]3COC(=O)[C@H]23)OCO4)cc(OC)c1O,pIC50,HMEC [1],4.84
same,pIC50,MCF7,5.25
same,pIC50,MRC5 [2],4.84
same,pIC50,L02 [3],4.79
same,pIC50,HepG2 [4],5.57
same,pIC50,A549,5.46
same,pIC50,HeLa,5.60
same,pIC50,[5],4.76
COc1cc([C@@H]2c3cc4c(cc3[C@@H](O[C@@H]3O[C@@H]5CO[C@@H](c6cccs6)O[C@H]5[C@H](OC(=O)CSc5nc6cc(F)ccc6o5)[C@H]3NC(=O)CSc3nc5cc(F)ccc5o3)[C@H]3COC(=O)[C@H]23)OCO4)cc(OC)c1O,pIC50,HMEC [1],3.90
same,pIC50,MCF7,4.91
same,pIC50,MRC5 [2],3.91
same,pIC50,L02 [3],3.91
same,inhibition,[6],Dose-dependent effect
same,inhibition,[7],100%
same,pIC50,HepG2 [4],4.95
same,pIC50,A549,4.83
same,pIC50,HeLa,3.81
same,pIC50,[5],3.91
same,Activity,HepG2 [8],inactive
same,Activity,HepG2 [9],76%
same,Activity,L02 [10],40%
same,Activity,HepG2 [11],30 - 55%
same,Activity,HepG2 [12],55%
same,Activity,L02 [13],30%
same,Activity,[14],Non-Toxic
same,LD50 at 480 h,[15],168 mg/kg
same,ED50,HepG2 [16],34.7 mg/kg
same,Activity,HepG2 [17],163.25 mm3
same,inhibition in vivo at 30 mg/kg,HepG2 [18],62%
same,selectivity ratio at 20 days,[19],4.82
same,inhibition,[20],Active
same,IC50,DNA topoisomerase II [21],124.2 µM
same,Activity,DNA topoisomerase II [22],Not Active
same,Activity,HepG2 [23],Active
same,Activity,L02 [24],8.4%
same,Activity,L02 [25],Toxic
same,Activity,L02 [26],Toxic
same,fold change (FC),L02 [27],10
same,fold change (FC),MRC5 [28],10
same,fold change (FC),HMEC [29],10
same,Activity,Homo sapiens,Active
same,Activity,L02 [30],Non-Toxic
same,Activity,L02 [31],Non-Toxic
COc1cc([C@@H]2c3cc4c(cc3[C@@H](O[C@@H]3O[C@@H]5CO[C@@H](c6cccs6)O[C@H]5[C@H](O)[C@H]3NC(=O)CSc3nc5cc(F)ccc5o3)[C@H]3COC(=O)[C@H]23)OCO4)cc(OC)c1O,pIC50,HMEC [1],3.81
same,pIC50,MCF7,3.80
same,pIC50,MRC5 [2],3.88
same,pIC50,L02 [3],3.84
same,pIC50,HepG2 [4],3.92
same,pIC50,A549,3.91
same,pIC50,HeLa,3.80
same,pIC50,[5],3.83
